Measured values published in patent US20120157401A1, “METHODS FOR TREATING NEUROFIBROMATOSIS” (PTC Therapeutics, Inc., priority 2009, published 2012).

Tested on: hypoxia-inducible endogenous VEGF expression
Assay: Hypoxia-inducible endogenous VEGF expression ELISA in HeLa cells, dose-response EC50 (Table 3)
Assay type: cell-based, human
Conditions: HeLa cells, hypoxic conditions (1% O2), 24-48 hours, VEGF in conditioned media; read-out: ELISA EC50
Protocol: The ability of the Compounds to modulate hypoxia-inducible endogenous VEGF expression may be analyzed as follows. VEGF protein levels may be monitored by an ELISA assay (R&D Systems). Briefly, HeLa cells may be cultured for 24-48 hours under hypoxic conditions (1% O2, 5% CO2, balanced with nitrogen) in the presence or absence of a Compound. The conditioned media may then be assayed by ELISA, and the concentration of VEGF calculated from the standard ELISA curve of each assay.
A dose-response analysis may be performed using the ELISA assay and conditions described above. The conditions for the dose-response ELISA are analogous to those described above. A series of, e.g., seven different concentrations may be analyzed. In parallel, a dose-response cytotoxicity assay may be performed using Cell Titer Glo (Promega) under the same conditions as the ELISA to ensure that the inhibition of VEGF expression was not due to the cytotoxicity.

SMILES	EC50
O=C(Oc1ccc(F)cc1)N1CCc2c([nH]c3ccc(Cl)cc23)C1c1ccc(OCCCn2ccnc2)cc1 (stereo not shown) [Compound 994]	< 0.008 µM

Same assay, conditions: Homo sapiens, HeLa, read-out: ELISA EC50 μM

SMILES	EC50
CN1CCCC(COc2ccc(C3c4[nH]c5ccc(Cl)cc5c4CCN3C(=O)Oc3ccc(Cl)cc3)cc2)C1 (stereo not shown) [Compound 966]	0.008 to 0.04 µM
COCCN(C)CC(O)COc1ccc(C2c3[nH]c4ccc(Cl)cc4c3CCN2C(=O)Oc2ccc(Cl)cc2)cc1 (stereo not shown) [Compound 964]	0.008 to 0.04 µM
CN(C)CCCOc1ccc(C2c3[nH]c4ccc(Cl)cc4c3CCN2C(=O)Oc2ccccc2)cc1 (stereo not shown) [Compound 493]	0.04 to 0.2 µM
O=C(Oc1ccc(Cl)cc1)N1CCc2c([nH]c3ccc(Cl)cc23)C1c1ccc(OCC(O)CN2CCCC2)cc1 (stereo not shown) [Compound 462]	0.008 to 0.04 µM
COCCCNCCCCCCOc1ccc(C2c3[nH]c4ccc(Cl)cc4c3CCN2C(=O)Oc2ccc(Cl)cc2)cc1 (stereo not shown) [Compound 785]	< 0.008 µM
COc1ccc(OC(=O)N2CCc3c([nH]c4ccc(Cl)cc34)C2c2ccc(OCCCN(C)C)cc2)cc1 (stereo not shown) [Compound 501]	0.04 to 0.2 µM
CN1CCC(COc2ccc(C3c4[nH]c5ccc(Cl)cc5c4CCN3C(=O)Oc3ccc(Cl)cc3)cc2)CC1 (stereo not shown) [Compound 1099]	0.008 to 0.04 µM
O=C(Oc1ccc(Cl)cc1)N1CCc2c([nH]c3ccc(Cl)cc23)[C@@H]1c1ccc(OC2CCN(CCN3CCOCC3)CC2)cc1 [Compound 1682]	< 0.008 µM
O=C(Oc1ccc(Cl)cc1)N1CCc2c([nH]c3ccc(Cl)cc23)[C@@H]1c1ccc(Oc2ncc(CN3CCOCC3)s2)cc1 [Compound 1660]	< 0.008 µM
CCCN(CCC)CCCOc1ccc([C@H]2c3[nH]c4ccc(Cl)cc4c3CCN2C(=O)Oc2ccc(Cl)cc2)cc1 [Compound 1234]	< 0.008 µM
COc1ccc(OC(=O)N2CCc3c([nH]c4ccc(Cl)cc34)C2c2ccc(OCCCN3CCOCC3)cc2)cc1 (stereo not shown) [Compound 1030]	0.008 to 0.04 µM
O=C(Oc1ccc(Cl)cc1)N1CCc2c([nH]c3ccc(Cl)cc23)[C@@H]1c1ccc(OCCCN(CCO)CCO)cc1 [Compound 1258]	< 0.008 µM
COCCN(CCCOc1ccc(C2c3[nH]c4ccc(Cl)cc4c3CCN2C(=O)Oc2ccc(F)cc2)cc1)CCOC (stereo not shown) [Compound 990]	< 0.008 µM
O=C(OCCN1CCOCC1)N1CCC(Oc2ccc([C@H]3c4[nH]c5ccc(Cl)cc5c4CCN3C(=O)Oc3ccc(Cl)cc3)cc2)CC1 [Compound 1693]	< 0.008 µM
O=C(COc1ccc(C2c3[nH]c4ccc(Cl)cc4c3CCN2C(=O)Oc2ccc(F)cc2)cc1)N1CCN(CCO)CC1 (stereo not shown) [Compound 1064]	0.008 to 0.04 µM
O=C(Oc1ccc(F)cc1)N1CCc2c([nH]c3ccc(Cl)cc23)C1c1ccc(OCCCCCCN2CCOCC2)cc1 (stereo not shown) [Compound 776]	< 0.008 µM
CN1CCC(OCCCOc2ccc(C3c4[nH]c5ccc(Cl)cc5c4CCN3C(=O)Oc3ccc(Cl)cc3)cc2)CC1 (stereo not shown) [Compound 1554]	> 1 µM
O=C(Oc1ccc(Cl)cc1)N1CCc2c([nH]c3ccc(Cl)cc23)C1c1ccc(OCCN2CCOCC2)cc1 (stereo not shown) [Compound 331]	> 1 µM
O=C1NC2CSC(CCCCC(=O)OCCOc3ccc(C4c5[nH]c6ccc(Cl)cc6c5CCN4C(=O)Oc4ccc(Cl)cc4)cc3)C2N1 (stereo not shown) [Compound 544]	< 0.008 µM
O=C(Oc1ccc(Cl)cc1)N1CCc2c([nH]c3ccc(Cl)cc23)C1c1ccc(OCC(O)CN2CCSCC2)cc1 (stereo not shown) [Compound 923]	< 0.008 µM
COCCN(CCCOc1cccc(C2c3[nH]c4ccc(Cl)cc4c3CCN2C(=O)Oc2ccc(F)cc2)c1)CCOC (stereo not shown) [Compound 1119]	0.04 to 0.2 µM
CCN(CC)CCCOc1ccc(C2c3[nH]c4ccc(Cl)cc4c3CCN2C(=O)Oc2ccc(Cl)cc2)cc1 (stereo not shown) [Compound 946]	0.008 to 0.04 µM
CNCC(O)COc1ccc(C2c3[nH]c4ccc(Cl)cc4c3CCN2C(=O)Oc2ccc(Cl)cc2)cc1 (stereo not shown) [Compound 850]	0.04 to 0.2 µM
CN1CCCC(COc2ccc(C3c4[nH]c5ccc(Cl)cc5c4CCN3C(=O)Oc3ccc(F)cc3)cc2)C1 (stereo not shown) [Compound 932]	< 0.008 µM

Same assay, conditions: Homo sapiens; HeLa cells, hypoxic conditions (1% O2), 24-48 hours, VEGF in conditioned media; read-out: ELISA EC50

SMILES	EC50
O=C(Oc1ccccc1Cl)N1CCc2c([nH]c3ccc(Cl)cc23)C1c1ccc(Cl)cc1 (stereo not shown) [Compound 589]	0.04 to 0.2 µM
Cc1ccc(C2c3[nH]c4ccc(Br)cc4c3CCN2C(=O)Oc2ccc(Cl)cc2)cc1 (stereo not shown) [Compound 353]	< 0.008 µM
N#Cc1ccc(C2c3[nH]c4ccc(Cl)cc4c3CCN2C(=O)Oc2ccc(Cl)cc2)cc1 (stereo not shown) [Compound 350]	< 0.008 µM
O=C(Oc1ccccc1Cl)N1CCc2c([nH]c3ccc(Cl)cc23)C1c1ccc(OCCCn2cncn2)cc1 (stereo not shown) [Compound 926]	< 0.008 µM
COc1ccc(C2c3[nH]c4ccc(Br)cc4c3CCN2C(=O)Oc2ccc(Cl)cc2)cc1 (stereo not shown) [Compound 355]	< 0.008 µM
COc1cc(C2c3[nH]c4ccc(Cl)cc4c3CCN2C(=O)Oc2ccc(Cl)cc2)ccc1OCCn1cncn1 (stereo not shown) [Compound 1086]	0.008 to 0.04 µM
C=CCOc1ccc(C2c3[nH]c4ccc(Cl)cc4c3CCN2C(=O)Oc2ccc(OC)cc2)cc1 (stereo not shown) [Compound 432]	< 0.008 µM
COc1ccc(OC(=O)N2CCc3c([nH]c4ccc(Cl)cc34)C2c2ccc(OCCCn3ccnc3)cc2)cc1 (stereo not shown) [Compound 920]	< 0.008 µM
O=C(O)c1ccc(C2c3[nH]c4ccc(Br)cc4c3CCN2C(=O)Oc2ccc(Cl)cc2)cc1 (stereo not shown) [Compound 519]	0.2 to 1 µM
O=C(Oc1ccccc1)N1CCc2c([nH]c3ccc(Cl)cc23)[C@@H]1c1ccc(OCC[C@H](O)CO)cc1 [Compound 1299]	< 0.008 µM
O=C(Oc1ccc(Cl)cc1)N1CCc2c([nH]c3ccc(Cl)cc23)C1c1ccc(OCCn2cncn2)cc1 (stereo not shown) [Compound 840]	0.008 to 0.04 µM
O=C(Oc1ccc(Cl)cc1)N1CCc2c([nH]c3ccc(Cl)cc23)C1c1ccc(OCCO)cc1 (stereo not shown) [Compound 571]	0.2 to 1 µM
COc1ccc(C2c3[nH]c4ccc(OC)cc4c3CCN2C(=O)Oc2ccc(Cl)cc2)cc1 (stereo not shown) [Compound 614]	0.2 to 1 µM
O=C(Oc1ccc(Cl)cc1)N1CCc2c([nH]c3ccc(Cl)cc23)C1c1ccc(F)cc1 (stereo not shown) [Compound 444]	0.008 to 0.04 µM
O=C(Oc1ccc(Cl)cc1)N1CCc2c([nH]c3ccc(Cl)cc23)C1c1ccc(OCCCI)cc1 (stereo not shown) [Compound 617]	0.008 to 0.04 µM
O=C(Oc1ccc(Cl)cc1)N1CCc2c([nH]c3ccc(Cl)cc23)C1c1ccc(OCCNc2nccs2)cc1 (stereo not shown) [#841]	< 0.008 µM
O=C(Oc1ccc(Cl)cc1)N1CCc2c([nH]c3ccc(Cl)cc23)[C@@H]1c1ccc(OCC(CO)CO)cc1 [Compound 1209]	< 0.008 µM

Same assay, conditions: Homo sapiens; HeLa cells, hypoxic conditions (1% O2), VEGF ELISA of conditioned media; read-out: ELISA EC50

SMILES	EC50
CCC(CO)(CO)COc1ccc([C@H]2c3[nH]c4ccc(Cl)cc4c3CCN2C(=O)Oc2ccc(F)cc2)cc1 [Compound 1328]	< 0.008 µM
Cc1cnc(C)c(Oc2ccc([C@H]3c4[nH]c5ccc(Cl)cc5c4CCN3C(=O)Oc3ccc(Cl)cc3)cc2)n1 [Compound 1658]	< 0.008 µM
O=C(Oc1ccc(Cl)cc1)N1CCc2c([nH]c3ccc(Cl)cc23)[C@@H]1c1ccc(OC2OC(CO)C(O)C(O)C2O)cc1 (stereo partly shown) [Compound 1695]	0.2 to 1 µM
NC(=O)c1cn(CCOc2ccc(C3c4[nH]c5ccc(Cl)cc5c4CCN3C(=O)Oc3ccc(Cl)cc3)cc2)nc1N (stereo not shown) [Compound 1422]	0.008 to 0.04 µM
CS(=O)(=O)CCCOc1ccc(C2c3[nH]c4ccc(Cl)cc4c3CCN2C(=O)Oc2ccc(Cl)cc2)cc1 (stereo not shown) [Compound 1551]	< 0.008 µM
CS(=O)(=O)CCCOc1ccc([C@H]2c3[nH]c4ccc(Cl)cc4c3CCN2C(=O)Oc2ccc(Cl)cc2)cc1 [Compound 1648]	< 0.008 µM
Cc1cc(N)nn1CCOc1ccc(C2c3[nH]c4ccc(Cl)cc4c3CCN2C(=O)Oc2ccc(F)cc2)cc1 (stereo not shown) [Compound 1414]	< 0.008 µM
O=C(NCC(O)CCOc1ccc([C@H]2c3[nH]c4ccc(Cl)cc4c3CCN2C(=O)Oc2ccc(Cl)cc2)cc1)c1cccnc1 (stereo partly shown) [Compound 1628]	< 0.008 µM
CCOC(=O)NCC(O)CCOc1ccc([C@H]2c3[nH]c4ccc(Cl)cc4c3CCN2C(=O)Oc2ccc(C)cc2)cc1 (stereo partly shown) [Compound 1643]	< 0.008 µM
O=C(NCC(O)CCOc1ccc([C@H]2c3[nH]c4ccc(Cl)cc4c3CCN2C(=O)Oc2ccc(Cl)cc2)cc1)c1ccncc1 (stereo partly shown) [Compound 1627]	< 0.008 µM
CC(C)S(=O)(=O)NCC(O)COc1ccc(C2c3[nH]c4ccc(Cl)cc4c3CCN2C(=O)Oc2ccc(Cl)cc2)cc1 (stereo not shown) [Compound 1566]	0.04 to 0.2 µM
O=C(Oc1ccc(Cl)cc1)N1CCc2c([nH]c3ccc(Cl)cc23)[C@@H]1c1ccc(OC2CCN(c3ncccn3)CC2)cc1 [Compound 1681]	< 0.008 µM
CC(=O)OCC1OC(n2cc(COc3ccc([C@H]4c5[nH]c6ccc(Cl)cc6c5CCN4C(=O)Oc4ccc(Cl)cc4)cc3)nn2)C(OC(C)=O)C(OC(C)=O)C1OC(C)=O (stereo partly shown) [Compound 1675]	0.04 to 0.2 µM
CC(C)SCCCOc1ccc(C2c3[nH]c4ccc(Cl)cc4c3CCN2C(=O)Oc2ccc(Cl)cc2)cc1 (stereo not shown) [Compound 1553]	< 0.008 µM
CC(C)S(=O)(=O)NCC(O)COc1ccc(C2c3[nH]c4ccc(Cl)cc4c3CCN2C(=O)Oc2ccc(F)cc2)cc1 (stereo not shown) [Compound 1557]	0.2 to 1 µM
O=C(NCC(O)CCOc1ccc([C@H]2c3[nH]c4ccc(Cl)cc4c3CCN2C(=O)Oc2ccc(Cl)cc2)cc1)c1ccccn1 (stereo partly shown) [Compound 1629]	< 0.008 µM
Nc1ccn(CCOc2ccc(C3c4[nH]c5ccc(Cl)cc5c4CCN3C(=O)Oc3ccc(F)cc3)cc2)n1 (stereo not shown) [Compound 1413]	< 0.008 µM
C[Si](C)(C)CCS(=O)(=O)N1CCC(Oc2ccc([C@H]3c4[nH]c5ccc(Cl)cc5c4CCN3C(=O)Oc3ccc(F)cc3)cc2)CC1 [Compound 1607]	< 0.008 µM
N#CCOc1ccc(C2c3[nH]c4ccc(Cl)cc4c3CCN2C(=O)Oc2ccc(Cl)cc2)cc1 (stereo not shown) [Compound 1520]	< 0.008 µM
